Reference: patent US20080242594A1, “Methods for Promoting Stem Cell Proliferation and Survival” (priority 2005, published 2008)

Experiments:
p38 MAP kinase = p38 MAP kinase phosphorylation immunoblot in CNS stem cells; format: cell-based, mouse
Excerpt: A candidate was p38MAP kinase, known to act downstream of JAK in many cells including CNS stem cells. p38 kinase has been implicated both in differentiation and cell cycle regulation, and recently, inhibition of p38 kinase enabled the proliferation of adult mammalian […] (Engel et al., Genes Dev, 2005). Inhibition of JAK blocked CNTF induced phosphorylation of p38 (FIG. 2g).

H9 hES cells = assay: hES colony number formation, H9; format: cell-based, human; details: H9 line
Excerpt: The human ES cell lines HSF-6 (University of California, San Francisco; NIH # UC06, Passage 38-120) and H1 and H9 (WiCell Research Institute, NIH # WA01 and […]) were maintained on mouse embryonic fibroblasts (MEF) according to the suppliers' protocols. Immunocytochemistry and FACS analysis for the expression of Oct4 and SSEA4 and SKY karyotyping established that the starting cells are undifferentiated and have a normal set of chromosomes. For single cell survival experiments, hES colonies were harvested after treatment with 1.5 mg/ml collagenase type IV (Invitrogen), separated from the MEF feeder cells by repeated washing by gravity, gently triturated to break up colonies into small aggregates, further dissociated into a single cell solution by trypsination (0.05% trypsin/0.04% EDTA) and transferred on MEF feeder cells at a density of 10000 cells/ml. Oct-4 positive colonies were counted six days after plating. […]
The pro-survival effects of activation of Notch and inhibition of JAK was tested on HSF-6 (NIH code UC06, http://escell.ucsf.edu), H1 (NIH code WA01, www.wicell.org) and H9 (NIH code WA09, www.wicell.org) hES cells. Singly dissociated hES cells were plated on mouse embryo fibroblasts (MEFs), treated daily for one week and colony numbers counted. […]

Akt = Akt phosphorylation immunoblot in CNS stem cells; format: cell-based, mouse; details: for Akt (total) / Akt-pS473 / Akt-pT308: absence of insulin
Protocol: Insulin in the medium is also thought to promote cell survival. […] Seeding cells in the absence of insulin caused the plating efficiency measured at five days to drop to 29.9%±37.9 (FIG. 1e). Delta-4 was able to compensate for the lack of insulin in the medium, and restored plating efficiency (125%±19.4). Because Notch activation improved survival, activation of Akt, a ser/threonine kinase known to be involved in cell survival, was assayed. Notch activation rapidly (5 minutes) promoted the phosphorylation of Akt on Ser473 and […] in both the presence and absence of insulin (FIG. 1f).

Notch1 = assay: Notch activation (Notch1IC / Notch ICD) immunocytochemical detection; format: cell-based, mouse; details: Insulin withdrawal, 2 days and then treat for 1 h
Excerpt: Antibodies were used that specifically bind: Notch1IC (Chemicon, 5352), GFP (Molecular Probes, A11122), Oct3/4 (Santa Cruz, sc-5279), SSEA1 and SSEA4 (Developmental Studies HybridomaBank), Tra-1-60 (Chemicon, MAB4360), Tra-1-81 (Chemicon, MAB4381), human nestin (Chemicon, MAB5326), Sox-1 (Gift from Dr. R Lovell-Badge), TH (Pel-Freez, P40101-0), Tuj1 (Covance, MMS-435P), rat nestin (McKay Lab), GFAP (Dako, z0334), CNPase (Chemicon, MAB326), BrdU (Accurate, H5903), DCX (Santa Cruz, sc-8066), Sox2 (R&D, MAB2018), Hu (Molecular Probes, A21271).
To assay for Notch activation, cultures were treated with the Notch ligands for 1 hour and Notch1 activation was detected by immunocytochemical staining of Notch1IC (FIG. 1b).
It was determined that insulin facilitates Notch cleavage using immunocytochemical detection.

[1] = tested on: Primary human central nervous system neural stem cell from pediatric subventricular zones; assay: Colony generation of primary human neural stem cells; format: cell-based; details: expanded in FGF2
Excerpt: Pharmacological Notch activation is beneficial also to primary neural stem cell cultures from non-cancerous human brain. Primary human central nervous system neural stem cell were produced from pediatric subventricular zones. These cells expanded in FGF2, and upon FGF2 withdrawal differentiated to produce colonies containing neurons, astrocytes, and oligodendrocytes (see Table 11). […] FGF2 withdrawal and subsequent differentiation of central nervous system neural stem cell cultures (fetal mouse) regulated Hes3 expression and STAT3 expression and phosphorylation in neurons, astrocytes, oligodendrocytes.

Compound | phosphorylation of p38 MAP kinase at Thr180/Tyr182 (p38 MAP kinase) | colony number formation (H9 hES cells) | Akt (total) (Akt; Dll4, 5 min) | Akt-pS473 (Akt; Dll4, 5 min) | Akt-pT308 (Akt; Dll4, 5 min) | Akt (total) (Akt; Dll4, 10 min) | Akt-pS473 (Akt; Dll4, 10 min) | Akt-pT308 (Akt; Dll4, 10 min) | time of peak Akt phosphorylation on Ser473 and Ser308 (Akt; presence and absence of insulin, Western blotting) [min] | Notch ICD (Notch1) | colonies containing neurons, astrocytes, and oligodendrocytes [1]
CC(C)(C)c1nc2c3ccc(F)cc3c3c(=O)[nH]ccc3c2[nH]1 [JAK Inhibitor, 2-(1,1-Dimethylethyl)-9-fluoro-3,6-dihydro-7H-benz[h]-imidaz[4,5-f]isoquinolin-7-one] | reduced the levels of phosphorylation | 347.6%±59.5 | – | – | – | – | – | – | – | – | –
Delta-4: soluble Notch ligand Delta-4 (1389-D4) from R&D | – | – | Medium | High | High | Medium | Medium | Medium | 5 | Low | generated significantly more of these colonies
